Consider 22 molecules from patent US8143408B2, “N-(8-heteroaryltetrahydronaphtalene-2yl) or N-(5-heteroarylchromane-3-yl) carboxamide derivatives for the treatment of pain” (AstraZeneca AB, priority 2007, dated 2012).

In this assay the target is T1, Nav1.7 voltage-gated sodium channel (Homo sapiens, UniProt Q15858).
T1 construct: Gene(s) encoding the full-length protein of the voltage-gated sodium channel of interest are cloned and expressed; expressed in transfected cells
In words: Whole-cell voltage clamp electrophysiology assay. The class given is cell-based. To be noted: cells stably expressing the voltage-gated sodium channel of interest. In short, it runs like this: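 Cells expressing full-length channel, exposed to drug by integrated pipetting on automated patch-clamp platforms or by microperfusion in conventional whole-cell patch clamp. Channels activated by a voltage protocol depolarising from a defined holding potential; buffers per platform manufacturer.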

T1 sequence (Q15858 whole entry): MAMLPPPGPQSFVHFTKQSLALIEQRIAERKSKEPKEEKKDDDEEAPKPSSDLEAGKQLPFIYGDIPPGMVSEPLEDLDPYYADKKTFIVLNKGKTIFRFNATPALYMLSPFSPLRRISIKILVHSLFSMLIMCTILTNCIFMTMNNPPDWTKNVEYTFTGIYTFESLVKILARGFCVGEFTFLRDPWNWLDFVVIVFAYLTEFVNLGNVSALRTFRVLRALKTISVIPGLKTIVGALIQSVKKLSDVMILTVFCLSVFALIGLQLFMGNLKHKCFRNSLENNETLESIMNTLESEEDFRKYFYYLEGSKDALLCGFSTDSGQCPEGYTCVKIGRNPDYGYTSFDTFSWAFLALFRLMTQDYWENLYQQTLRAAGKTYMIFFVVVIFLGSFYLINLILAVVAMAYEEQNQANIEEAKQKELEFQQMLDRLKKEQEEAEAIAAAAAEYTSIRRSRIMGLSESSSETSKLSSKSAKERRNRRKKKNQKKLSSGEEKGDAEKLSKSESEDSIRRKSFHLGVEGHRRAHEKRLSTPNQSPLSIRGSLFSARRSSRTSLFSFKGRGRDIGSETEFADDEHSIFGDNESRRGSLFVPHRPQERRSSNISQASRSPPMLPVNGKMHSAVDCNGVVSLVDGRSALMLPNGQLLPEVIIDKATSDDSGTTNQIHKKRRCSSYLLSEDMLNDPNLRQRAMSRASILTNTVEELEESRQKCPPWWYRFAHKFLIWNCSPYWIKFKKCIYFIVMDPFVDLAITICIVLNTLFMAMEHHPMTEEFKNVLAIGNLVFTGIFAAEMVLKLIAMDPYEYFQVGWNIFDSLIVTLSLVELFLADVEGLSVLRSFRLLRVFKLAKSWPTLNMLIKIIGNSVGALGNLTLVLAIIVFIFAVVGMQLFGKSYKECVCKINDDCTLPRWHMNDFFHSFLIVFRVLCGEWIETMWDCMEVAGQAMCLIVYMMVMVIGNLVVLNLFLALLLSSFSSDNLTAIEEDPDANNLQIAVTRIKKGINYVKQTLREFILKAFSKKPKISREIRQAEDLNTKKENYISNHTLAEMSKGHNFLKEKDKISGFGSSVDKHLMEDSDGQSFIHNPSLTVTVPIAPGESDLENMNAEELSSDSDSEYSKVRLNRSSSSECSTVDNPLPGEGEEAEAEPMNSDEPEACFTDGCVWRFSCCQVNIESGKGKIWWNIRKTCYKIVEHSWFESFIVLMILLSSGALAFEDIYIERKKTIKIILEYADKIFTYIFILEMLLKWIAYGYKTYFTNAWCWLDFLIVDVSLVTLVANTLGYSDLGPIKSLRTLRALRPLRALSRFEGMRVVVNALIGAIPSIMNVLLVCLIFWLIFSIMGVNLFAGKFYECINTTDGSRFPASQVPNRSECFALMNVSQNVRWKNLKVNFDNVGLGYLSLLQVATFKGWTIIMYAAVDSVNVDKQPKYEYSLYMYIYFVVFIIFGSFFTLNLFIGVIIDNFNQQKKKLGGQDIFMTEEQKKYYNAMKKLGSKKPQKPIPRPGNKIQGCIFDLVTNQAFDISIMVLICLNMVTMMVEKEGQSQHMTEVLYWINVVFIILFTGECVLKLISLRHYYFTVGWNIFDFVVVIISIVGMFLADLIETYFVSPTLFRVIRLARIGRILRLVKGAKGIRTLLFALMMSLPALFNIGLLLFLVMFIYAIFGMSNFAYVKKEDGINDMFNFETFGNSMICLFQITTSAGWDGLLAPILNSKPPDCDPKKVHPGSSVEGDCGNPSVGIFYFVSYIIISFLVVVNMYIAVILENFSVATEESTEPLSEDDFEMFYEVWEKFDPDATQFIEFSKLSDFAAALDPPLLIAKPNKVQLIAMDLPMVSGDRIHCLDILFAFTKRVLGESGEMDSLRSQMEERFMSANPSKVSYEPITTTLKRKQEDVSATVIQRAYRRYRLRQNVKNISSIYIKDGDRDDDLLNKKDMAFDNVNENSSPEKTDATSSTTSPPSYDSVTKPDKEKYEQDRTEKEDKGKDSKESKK

What is called IC50 is the midpoint of a concentration-inhibition curve. Read a low IC50 as greater potency in that assay. As to `CCc1ncc(-c2cccc3c2C[C@H](NC(=O)c2ccc(C(=O)NCCC(F)(F)F)nc2)CO3)cn1` [Example 174, N^5-[(3S)-5-(2-ethylpyrimidin-5-yl)-3,4-dihydro-2H-chromen-3-yl]-N^2-(3,3,3-trifluoropropyl)pyridine-2,5-dicarboxamide], the IC50 was 200 nM.

Turning to `CS(=O)(=O)c1ccc(-c2cccc3c2C[C@H](NC(=O)c2ccc(OCCOCC(F)(F)F)nc2)CO3)cn1` [Example 175, N-{(3S)-5-[6-(methylsulfonyl)pyridin-3-yl]-3,4-dihydro-2H-chromen-3-yl}-6-[2-(2,2,2-trifluoroethoxy)ethoxy]nicotinamide], half-maximal inhibition (IC50) was put at 2510 nM.

Molecule `N#Cc1ccc(-c2cccc3c2C[C@H](NC(=O)c2ccc(OCCOCC(F)(F)F)nc2)CO3)cn1` [Example 176, N-[(3S)-5-(6-cyanopyridin-3-yl)-3,4-dihydro-2H-chromen-3-yl]-6-[2-(2,2,2-trifluoroethoxy)ethoxy]nicotinamide] gave an IC50 of 126 nM.

`O=C(N[C@@H]1COc2cccc(-c3cnc(C4CC4)nc3)c2C1)c1ccc(OCCOCC(F)(F)F)nc1` [Example 177, N-[(3S)-5-(2-cyclopropylpyrimidin-5-yl)-3,4-dihydro-2H-chromen-3-yl]-6-[2-(2,2,2-trifluoroethoxy)ethoxy]nicotinamide] showed an IC50 of 50.1 nM.

`CCc1ncc(-c2cccc3c2C[C@H](NC(=O)c2ccc(OCCOCC(F)(F)F)nc2)CO3)cn1` [Example 178, N-[(3S)-5-(2-ethylpyrimidin-5-yl)-3,4-dihydro-2H-chromen-3-yl]-6-[2-(2,2,2-trifluoroethoxy)ethoxy]nicotinamide] had an IC50 of 63.1 nM.

Molecule `COc1ncc(-c2cccc3c2C[C@H](NC(=O)c2ccc(C(=O)NCCC(F)(F)F)nc2)CO3)cc1F` [Example 179, N^5-[(3S)-5-(5-fluoro-6-methoxypyridin-3-yl)-3,4-dihydro-2H-chromen-3-yl]-N^2-(3,3,3-trifluoropropyl)pyridine-2,5-dicarboxamide] had an IC50 of 200 nM.

With `COc1ncc(-c2cccc3c2C[C@H](NC(=O)c2ccc(OCCOCC(F)(F)F)nc2)CO3)cc1F` [Example 180, N-[(3S)-5-(5-fluoro-6-methoxypyridin-3-yl)-3,4-dihydro-2H-chromen-3-yl]-6-[2-(2,2,2-trifluoroethoxy)ethoxy]nicotinamide], the IC50 was 316 nM.

For `COc1ncc(-c2cccc3c2C[C@H](NC(=O)c2ccc(S(=O)(=O)C4CCCC4)nc2)CO3)cn1` [Example 181, 6-(cyclopentylsulfonyl)-N-[(3S)-5-(2-methoxypyrimidin-5-yl)-3,4-dihydro-2H-chromen-3-yl]nicotinamide], half-maximal inhibition (IC50) was put at 501 nM.

The molecule `Cc1cncc(-c2cccc3c2C[C@H](NC(=O)c2ccc(OCCOCC(F)(F)F)nc2)CO3)n1` [Example 182, N-[(3S)-5-(6-methylpyrazin-2-yl)-3,4-dihydro-2H-chromen-3-yl]-6-[2-(2,2,2-trifluoroethoxy)ethoxy]nicotinamide] showed an IC50 of 63.1 nM. Against the preceding molecule, the IC50 is about 7.9-fold lower.

`Cc1ncc(-c2cccc3c2C[C@H](NC(=O)c2ccc(C(=O)NCCC(F)(F)F)nc2)CO3)cn1` [Example 183, N^5-[(3S)-5-(2-methylpyrimidin-5-yl)-3,4-dihydro-2H-chromen-3-yl]-N^2-(3,3,3-trifluoropropyl)pyridine-2,5-dicarboxamide] showed an IC50 of 316 nM.

On to `COc1ncc(-c2cccc3c2C[C@H](NC(=O)c2ccc(OCCOC(C)C)nc2)CO3)cn1` [Example 184, 6-(2-isopropoxyethoxy)-N-[(3S)-5-(2-methoxypyrimidin-5-yl)-3,4-dihydro-2H-chromen-3-yl]nicotinamide], for which the midpoint of inhibition, the IC50, lay at 501 nM.

In the case of `Cc1ncc(-c2cccc3c2C[C@H](NC(=O)c2ccc(OCCOC(C)C)nc2)CO3)cn1` [Example 185, 6-(2-isopropoxyethoxy)-N-[(3S)-5-(2-methylpyrimidin-5-yl)-3,4-dihydro-2H-chromen-3-yl]nicotinamide], the IC50 is 316 nM.

Turning to `Cc1ncc(-c2cccc3c2C[C@H](NC(=O)c2ccc(C(=O)NCCCOC(C)C)nc2)CO3)cn1` [Example 186, N^2-(3-isopropoxypropyl)-N^5-[(3S)-5-(2-methylpyrimidin-5-yl)-3,4-dihydro-2H-chromen-3-yl]pyridine-2,5-dicarboxamide], the IC50 was 2000 nM.

In the case of `COc1ncc(-c2cccc3c2C[C@H](NC(=O)c2ccc(C(=O)NCCCOC(C)C)nc2)CO3)cn1` [Example 187, N^2-(3-isopropoxypropyl)-N^5-[(3S)-5-(2-methoxypyrimidin-5-yl)-3,4-dihydro-2H-chromen-3-yl]pyridine-2,5-dicarboxamide], the midpoint of inhibition, the IC50, lay at 1580 nM. The IC50 values of the last two molecules are within 1.5-fold of each other.

As for `Cc1ncc(-c2cccc3c2C[C@H](NC(=O)c2ccc(C(=O)NCCCC(F)(F)F)nc2)CO3)cn1` [Example 188, N^5-[(3S)-5-(2-methylpyrimidin-5-yl)-3,4-dihydro-2H-chromen-3-yl]-N^2-(4,4,4-trifluorobutyl)pyridine-2,5-dicarboxamide], the IC50 is 251 nM.

Take `Cc1ncc(-c2cccc3c2C[C@H](NC(=O)c2ccc(OCCOCC(F)(F)F)nc2)CO3)cn1` [Example 189, N-[(3S)-5-(2-methylpyrimidin-5-yl)-3,4-dihydro-2H-chromen-3-yl]-6-[2-(2,2,2-trifluoroethoxy)ethoxy]nicotinamide]: 79.4 nM corresponded to half-maximal inhibition (IC50). Against the preceding molecule, the IC50 is about 3.2-fold lower.

For the molecule `COc1ncc(-c2cccc3c2C[C@H](NC(=O)c2ccnc(OCCOCC(F)(F)F)c2)CC3)cn1` [Example 190, N-[(2R)-8-(2-methoxypyrimidin-5-yl)-1,2,3,4-tetrahydronaphthalen-2-yl]-2-[2-(2,2,2-trifluoroethoxy)ethoxy]isonicotinamide], the IC50 was 7940 nM. Compared with the last molecule, the IC50 is about 100-fold higher.

With `COc1ncc(-c2cccc3c2C[C@H](NC(=O)c2ccc(C(=O)N(C)CC(F)(F)F)nc2)CO3)cn1` [Example 191, N^5-[(3S)-5-(2-methoxypyrimidin-5-yl)-3,4-dihydro-2H-chromen-3-yl]-N^2-methyl-N^2-(2,2,2-trifluoroethyl)pyridine-2,5-dicarboxamide], the IC50 was 794 nM.

With `COc1ncc(-c2cccc3c2C[C@H](NC(=O)c2ccc(C(=O)N(C)CC(F)(F)F)nc2)CO3)cc1F` [Example 192, N^5-[(3S)-5-(5-fluoro-6-methoxypyridin-3-yl)-3,4-dihydro-2H-chromen-3-yl]-N^2-methyl-N^2-(2,2,2-trifluoroethyl)pyridine-2,5-dicarboxamide], the IC50 was 631 nM.

In the case of `COc1ncc(-c2cccc3c2C[C@H](NC(=O)c2ccc(COCC(F)(F)F)nc2)CO3)cc1F` [Example 193, N-[(3S)-5-(5-fluoro-6-methoxypyridin-3-yl)-3,4-dihydro-2H-chromen-3-yl]-6-[(2,2,2-trifluoroethoxy)methyl]nicotinamide], half-maximal inhibition (IC50) was put at 158 nM.

For `COc1ncc(-c2cccc3c2C[C@H](NC(=O)c2ccc(COCC(F)(F)F)nc2)CO3)cn1` [Example 194, N-[(3S)-5-(2-methoxypyrimidin-5-yl)-3,4-dihydro-2H-chromen-3-yl]-6-[(2,2,2-trifluoroethoxy)methyl]nicotinamide], half-maximal inhibition (IC50) required 200 nM.

`COc1ncc(-c2cccc3c2C[C@H](NC(=O)c2cnc(NCCC(F)(F)F)nc2)CO3)cn1` [Example 195, N-[(3S)-5-(2-methoxypyrimidin-5-yl)-3,4-dihydro-2H-chromen-3-yl]-2-[(3,3,3-trifluoropropyl)amino]pyrimidine-5-carboxamide] gave an IC50 of 398 nM. This IC50 is about 2-fold higher than that of the molecule before.
